Source: patent US6613317B1, “Volatile attractants for diabrotica species” (priority 1988, dated 2003)
Marks after values point to notes of the source that are not given here.

What was measured:
D. barberi [1] = test: Sticky trap attraction in prairie habitat, Trelease Woods (Example 2); format: in vivo, Diabrotica barberi; details: 100 mg per trap, n = 4
Outline: (§1)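 Lure-dosed cotton wicks (solids in acetone; untreated controls) on TangleTrap-coated cartons atop 1 m posts, four replicates 10 m apart in relict prairie, mid-August over two years. Read-out: mean beetles caught after 24-h; log-transformed ANOVA with Duncan's multiple range test.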

D. cristata = test: as above; format: in vivo, Diabrotica cristata; details: 100 mg per trap, n = 4
Outline: as §1

D. v. virgifera [2] = test: as above; format: in vivo, Diabrotica virgifera virgifera; details: 100 mg per trap, n = 4
Outline: as §1

D. u. howardi [3] = test: as above; format: in vivo, Diabrotica undecimpunctata howardi; details: 100 mg per trap, n = 4
Outline: as §1

D. barberi [4] = test: Sticky trap attraction along hybrid corn, Pomology South Farms (Example 2); format: in vivo, Diabrotica barberi; details: August 7; 100 mg per trap; n = 4
Protocol: (§2) The candidate lures in all experiments were purchased commercially and exceeded 98% purity. The test chemicals were applied by capillary micropipettes to cotton dental wicks which were attached to the tops of 1.0 liter cylindrical paper cartons covered with TangleTrap™ (Tanglefoot Co., Grand Rapids, Mich.). The sticky trap techniques used were as described in Example 1. Cinnamyl alcohol and para-methoxycinnamaldehyde, which are solids, were dissolved in glass-distilled acetone prior to dosing the cotton wicks. All treatments were applied at a dosage of 100 mg per trap. 1,2,4-trimethoxybenzene, indole, and trans-cinnamaldehyde were mixed in a ratio of 1:1:1, by weight, immediately prior to dosing the cotton wicks. Control traps had untreated cotton wicks. Four replicates of treated and untreated traps were randomly positioned 10 meters apart on top of 1 m high posts along the border of a eight foot wide strip cut through the middle of a 4.05 ha relict prairie at Trelease Woods (ca. two miles northeast of Urbana, Ill.). The field consisted primarily of Andropogon gerardii Vitman (big bluestem) and a variety of composites. The tests were conducted in mid-August of two years and were timed to coincide with the presence of D. cristata and D. barberi adults in the flower heads of Canada thistle (Carduus arvensis Robson). In the second year, several new attractants of D. v. virgifera and D. barberi were tested in Trelease Woods and along the edge of a 0.8 ha field of hybrid corn located at the Pomology South Farms, Urbana, Ill. Attraction of Diabrotica species to the various lures was measured by the mean number of beetles caught after 24-h. On one date in late August of the first year, D. cristata and D. barberi were removed from the traps and sexed in the laboratory. The significance of treatments in all tests was determined by an analysis of variance and the individual means were separated by Duncan's multiple range test (Statistical Package for Social Science, Nie, et al., SPSS: statistical package for the social sciences, 2nd ed. McGraw-Hill, New York (1975). Data were logarithmically transformed for statistical analysis and the means and standard deviations are presented for the untransformed data.

D. v. virgifera [5] = test: as above; format: in vivo, Diabrotica virgifera virgifera; details: August 7; 100 mg per trap; n = 4
Protocol: as §2

D. u. howardi [6] = test: as above; format: in vivo, Diabrotica undecimpunctata howardi; details: August 7; 100 mg per trap; n = 4
Protocol: as §2

[7] = system: western corn rootworm (WCR) adults; test: Sticky trap attraction in corn, estragole analogues (Example 3); format: in vivo, Diabrotica virgifera virgifera; details: 100 mg per trap
Outline: (§3)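 Cotton wicks dosed with 100 mg or 100 μL attractant per trap on TangleTrap-coated cartons, four replicates 10 m apart on 1 m posts at field edges of hybrid or sweet corn. Mean beetles caught after ~24 h; log-transformed ANOVA with Duncan's test, P=0.05.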

[8] = system: southern corn rootworm (SCR) adults; test: as above; format: in vivo, Diabrotica undecimpunctata howardi; details: 100 mg per trap, n = 4
Outline: as §3

[9] = system: northern corn rootworm (NCR) adults; test: as above; format: in vivo, Diabrotica barberi; details: August 7 (Table 11); 100 mg per trap; n = 4
Outline: as §3

[10] = system: western corn rootworm (WCR) adults; details: in vivo; cited from earlier work
WCR = details: in vivo; cited from earlier work

C=CCc1ccc(OC)cc1 [I, 4-methoxy-1-allylbenzene]
Mean number of D. barberi per day (±standard deviation) (D. barberi [1]; August 11, 1987): 1.0 ± 2.0^a per day | Mean number of D. barberi per day (±standard deviation) (D. barberi [1]; August 14, 1987): 4.0 ± 0.8^b per day | Mean number of D. barberi per sticky trap per day (±standard deviation) (D. barberi [1]; August 27, first year): 6.5 ± 3.7^b per sticky trap per day | Mean number of D. cristata per day (±standard deviation) (D. cristata; August 11, 1987): 13.5 ± 4.1^b per day | Mean number of D. cristata per day (±standard deviation) (D. cristata; August 14, 1987): 13.0 ± 4.2^c per day | Mean number of D. cristata per sticky trap per day (±standard deviation) (D. cristata; August 27, first year): 5.3 ± 1.0^b per sticky trap per day | Mean number of D. v. virgifera per day (±standard deviation) (D. v. virgifera [2]; August 11, 1987): 0.3 ± 0.5^a per day | Mean number of D. v. virgifera per day (±standard deviation) (D. v. virgifera [2]; August 14, 1987): 0.3 ± 0.5^a per day | Mean number of D. v. virgifera per sticky trap per day (±standard deviation) (D. v. virgifera [2]; August 27, first year): 0 per sticky trap per day | Mean number of D. u. howardi per day (±standard deviation) (D. u. howardi [3]; August 11, 1987): 0.3 ± 0.5^a per day | Mean number of D. u. howardi per day (±standard deviation) (D. u. howardi [3]; August 14, 1987): 0.5 ± 0.7^a per day | Mean number of D. u. howardi per sticky trap per day (±standard deviation) (D. u. howardi [3]; August 27, first year): 3.0 ± 2.8^a per sticky trap per day | Mean number of D. barberi per stick trap per day (±standard deviation) in corn (D. barberi [4]): 2.3 ± 2.1^ab per stick trap per day | Mean number of D. v. virgifera per stick trap per day (±standard deviation) in corn (D. v. virgifera [5]): 64.0 ± 15.9^b per stick trap per day | Mean number of D. u. howardi per stick trap per day (±standard deviation) in corn (D. u. howardi [6]): 7.0 ± 4.5^a per stick trap per day | Mean number of WCR adults per sticky trap (±standard deviation) after 24 hours ([7]; August 4 second year, n = 4): 84.5 ± 19.7^d per sticky trap | Mean number of WCR adults per sticky trap (±standard deviation) after 24 hours ([7]; August 5 first year, n = 4): 17.2 ± 7.8^c per sticky trap | Mean number of WCR (±standard deviation) per sticky trap after 24 hours ([7]; August 7 (Table 11), n = 4): 64.0 ± 15.9^b per sticky trap | Relative percent activity as compared with the highest mean in the column (WCR) ([7]; August 29): 100% | Mean number of WCR per sticky trap (±standard deviation) after 24 hours ([7]; August 29, n = 4): 147.2 ± 46.5 per sticky trap | Relative percent activity as compared with the highest mean in the column (WCR) ([7]; July 30): 100% | Mean number of WCR per sticky trap (±standard deviation) after 24 hours ([7]; July 30, n = 4): 82.1 ± 8.6 per sticky trap | Mean number of SCR adults per sticky trap (±standard deviation) after 24 hours ([8]; August 4 second year): 7.2 ± 5.1^a per sticky trap | Mean number of SCR adults per sticky trap (±standard deviation) after 24 hours ([8]; August 5 first year): 9.2 ± 5.6^a per sticky trap | Mean number of SCR (±standard deviation) per sticky trap after 24 hours ([8]; August 7 (Table 11)): 7.0 ± 4.5^a per sticky trap | Mean number of NCR (±standard deviation) per sticky trap after 24 hours [9]: 2.2 ± 2.1^ab per sticky trap | LR values for WCR attraction (literature) [10]: about 3 mg | LR for WCR, most effective volatile attractants yet identified (WCR): 3 mg
